Laboratory results as given in US20170305981A1, “SYNTHETIC PEPTIDES” (The University of Chicago, priority 2014, published 2017).
Several values for one entry are separate records, joined by “and”; a condition that tells them apart may be missing. Equal values may be shown once. Entries after “also recorded” stand apart in the source; their conditions may differ.

Columns and labels:
LpL [1] = experiment: LpL activity in the presence of human plasma / plasma TG-rich lipoproteins; type: biochemical; details: normal and dyslipidemic plasma
Method: (§1) The removal of cell surface LpL with heparin reduced activity.
(§2) Plasma contains lipoproteins with apoC-III and ANGPT4, known inhibitors of LpL activity. However, LpL activity in live leukocytes was stimulated by AV199-232 (FIG. 23C). […] AV199-232 was incubated with whole plasma from normal and diabetic/dyslipidemic plasma and then the TG-rich lipoproteins (Lp) were isolated by PEG-8000 precipitation and added to LpL assays (30 μg/ml).

lipoprotein lipase (LpL) = experiment: Lipoprotein lipase (LpL) in vitro activity assay with fluorogenic TG substrate EnzChek; type: biochemical; details: for LpL stimulating activity of domain substitution peptides relative to AV199-232: knockout substitutions in AV199-232 domains
Method: FIG. 3A-C. Lipoprotein lipase (LpL) activity assay using a fluorogenic TG analog, EnzChek (Invitrogen). The enzyme reaction mix was composed of increasing concentrations of LpL in 100 μl Tris buffered saline (TBS), 1% BSA, pH 7.8, 0.015% Zwittergent 3-14 and 1 μM EnzChek substrate. Reaction was monitored by fluorescence (λex=482 nm, λem=515 nm) and the relative fluorescence units (RFU) against time plotted (A). BODIPY labeled fatty acid (BODIPY-FA) was used to determine product concentration generated with the lipase (B). Structure of the EnzChek substrate (E33955) which was purchased from Invitrogen Inc. (C).
To search for lipase stimulators, a lipase assay was employed using a commercially available fluorogenic-TG substrate (EnzChek) supplied by Molecular Probes (FIG. 3). The protocol was adapted from Basu et al., (Basu et al. (2011) J.Lipid Res. 52, 826-832; herein incorporated by reference in its entirety) with minor modifications in pH and detergent. For in vitro assays, LpL (SIGMA) was diluted to 0.12 μg/ml in 20 mM Tris-HCl, 150 mM NaCl, 1% BSA, 0.015% Zwittergent 3-14, pH 7.8, 1 μM EnzChek substrate, prepared in 96-well black microtiter plates. For some assays the plates were incubates at 37° C. for 10min. Detection was performed in a Synergy H1 Multi-Mode Reader using excitation/emission wavelengths of 482 nm and 515 nm, respectively. […] Moreover, the product produced could be quantified using BODIPY-C12 fatty acids to determine the molar rates of enzyme reaction. Since the assay uses a non-toxic substrate and a low amount of neutral detergent it is possible to use this assay with live cells (FIG. 4). The lipase activities assayed were sensitive to both the removal of lipase (HL) from the surface of hepatocytes (by a heparin pre-wash) and to apolipoproteins present in isolated lipoproteins, VLDL, LDL and HDL preparations.

Leukocyte-LpL = target: T1, Leukocyte-LpL (Homo sapiens, UniProt P06858); experiment: LpL activity in live leukocytes isolated from fresh human blood; type: cell-based
T1 construct: endogenous in cells; host or cells: leukocytes isolated from fresh human blood
T1 sequence (P06858 28-475): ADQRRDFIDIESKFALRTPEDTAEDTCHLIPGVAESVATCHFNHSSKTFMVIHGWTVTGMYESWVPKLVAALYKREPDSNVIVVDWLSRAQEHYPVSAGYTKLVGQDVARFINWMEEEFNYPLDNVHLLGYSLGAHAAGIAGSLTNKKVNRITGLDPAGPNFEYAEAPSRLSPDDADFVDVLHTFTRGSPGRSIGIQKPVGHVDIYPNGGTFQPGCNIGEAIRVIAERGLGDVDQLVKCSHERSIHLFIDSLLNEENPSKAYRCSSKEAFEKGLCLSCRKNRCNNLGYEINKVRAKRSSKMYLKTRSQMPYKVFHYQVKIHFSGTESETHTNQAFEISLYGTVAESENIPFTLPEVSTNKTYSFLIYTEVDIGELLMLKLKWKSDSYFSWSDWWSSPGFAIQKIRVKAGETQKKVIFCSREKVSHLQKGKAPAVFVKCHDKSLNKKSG
Method: as §1, §2

[2] = Heparin binding (circular dichroism on addition of heparin)
Method: FIG. 10. AV199-232 is an a-helical peptide that binds heparin. Peptide folding and conformation was analyzed experimentally by circular dichroism spectroscopy (A) and calculated to be ˜42% α-helical which increased to ˜76% on binding heparin.
Given that there appeared to be a periodicity in the sequence of AV199-232 consisting of alternating polar and non-polar residues, the possibility that the peptide was folded into a amphipathic α-helix was investigated (FIG. 10). […] In silico analysis also predicted a high α-helical content. […] The amphipathic nature of the peptide was evident with polar residues and nonpolar residues (domain-L) organized to opposite sides of the helix. Domain-L is responsible for binding to VLDL. Domain-1, domain-2 and domain-H were also identified on the polar side.

LpL [3] = experiment: LpL enzyme kinetics (Vmax, Km) by Michaelis-Menten fitting; type: biochemical
Method: FIG. 9. […] Lipase reaction was performed with different substrate concentrations (0-25 μM) (A, C, D) to determine the kinetic parameters of LpL enzymatic activity, +/− VLDL (10 μg/ml) and +/− AV199-232 (2.5 μM). (B) The addition of VLDL reduced the enzymes affinity for substrate by 5.3-fold which is consistent with inhibition by apoC-III. […] Kinetic parameters were determined using GraphPad Prism software curve fitting to the Michaelis-Menten enzyme kinetic equation.
The influence of AV199-232 on the kinetic parameters of LpL activity (e.g., Vmax and Km) was investigated (FIG. 9A-B). […] This was due to the apoC-III content of VLDL. […] Also AV199-232 was functional in the presence of apoC-III in VLDL. The effect of different lipoproteins on LpL kinetics was compared (FIG. 9D).

LpL in THP-1 macrophages = target: T2, LpL in THP-1 macrophages (Homo sapiens, UniProt P06858); experiment: Lipase activity in cultures of live THP-1 macrophages; type: cell-based; details: live THP-1 macrophages known to express LpL
T2 construct: endogenous in cells; host or cells: THP-1 macrophages
T2 sequence (P06858 28-475): T1 sequence (P06858 28-475)
Method: FIG. 8. Determining the minimum peptide sequence (A) harboring full lipase stimulating activity (B, D). […] Assays were performed by adding 10 μM of peptide to in vitro LpL assays (B) or to hepatocyte (HepG2) cell cultures (D). In 24 well tissue culture plates, cells were incubated for 1 hr at 37° C. in 200 μL TBS, 1.5% BSA, 0.2% zwittergent 3-14, 1μM EnzChek substrate. AV199-232 was also active in cultures of live THP-1 macrophages known to express LpL (C).

VLDL = VLDL binding, complexes isolated by gel filtration on Sepharose CL-4B, then LpL assay
Method: VLDL (100 μg) was incubated with AV199-232 (50 μg) and complexes were isolated from free peptide by gel filtration on a Sepharose CL-4B column (FIG. 15A).

[4] = peptide added to LpL without VLDL, 10 μM
[5] = peptides 80 μg/ml preincubated with VLDL 20 μg/ml

Substance: AV-H/K: AV199-232 peptide with H in domain-H replaced with a K (ARLSRCVQVLSRKLTLKAKALKARIQQNLDQLRE; Mutated wild-type peptide)
- stimulation of LpL activity in the presence of plasma (LpL [1]): stimulates LpL

Substance: DomLKO: peptide with domain L substitutions L10Q/L21Q/L29Q (ARLSRCVQVQSRKLTLKAKAQHARIQQNQDQLRE)
- LpL stimulating activity of domain substitution peptides relative to AV199-232 (lipoprotein lipase (LpL)): moderate reduction in activity

Substance: Dom2KO: AV199-232 with domain 2 substitutions K13Q/K17Q (ARLSRCVQVLSRQLTLQAKALHARIQQNLDQLRE)
- LpL stimulating activity of domain substitution peptides relative to AV199-232 (lipoprotein lipase (LpL)): significant reduction

Substance: AV199-237: synthetic peptide spanning residues 199-237 of mature human apoA-V (ARLSRCVQVLSRKLTLKAKALHARIQQNLDQLREELSRA; listed as Homo sapiens)
- influence on LpL activity (lipoprotein lipase (LpL); in the presence of VLDL): exceeded that seen with an apoC-II peptide (C-II50-79); also recorded: stimulated LpL activity in the presence of VLDL
- influence on LpL activity (lipoprotein lipase (LpL); [4]): no change in activity; also recorded: did not increase enzyme activity
- stimulation of LpL activity (lipoprotein lipase (LpL); peptide incubated with VLDL before adding to LpL, 10 μM): ~4 fold

Substance: AV250-288: peptide spanning residues 250-288 of apoA-V (DPQMLSEEVRQRLQAFRQDTYLQIAAFTRAIDQETEEVQ)
- influence on LpL activity (lipoprotein lipase (LpL); in the presence of VLDL): Little or no stimulating activity; also recorded: did not
- influence on LpL activity (lipoprotein lipase (LpL); [4]): Little or no stimulating activity

Substance: AV199-232: 34-residue peptide, residues 199-232 of apoA-V; AV199-237 shortened by 5 residues (ARLSRCVQVLSRKLTLKAKALHARIQQNLDQLRE; listed as Homo sapiens)
- stimulation of LpL activity in live leukocytes (Leukocyte-LpL): responds; also recorded: stimulated; also recorded: responsive
- heparin binding [2]: heparin binding activity; also recorded: binds heparin
- increase of LpL's apparent affinity for substrate (Km improvement) (LpL [3]; AV199-232 2.5 μM + VLDL 10 μg/ml): ~8 fold and 7.8 fold
- changes in the Vmax and Km of LpL (LpL [3]; AV199-232 2.5 μM without VLDL): only marginal changes
- lipase stimulating activity of the shortened peptide relative to AV199-237 (lipoprotein lipase (LpL); 10 μM, in vitro LpL assays and HepG2 cell cultures): harbored full activity and was actually somewhat more potent; also recorded: enhancement of activity
- lipase stimulating activity in THP-1 macrophages (LpL in THP-1 macrophages): active
- VLDL binding (VLDL; VLDL 100 μg incubated with AV199-232 50 μg): binds VLDL
- LpL stimulation by the isolated VLDL:AV199-232 complex (VLDL; void fraction (Vo) of gel filtration added to LpL): effective at stimulating LpL activity; also recorded: stimulates LpL activity
- stimulation of LpL activity in the presence of plasma (LpL [1]): stimulates LpL activity

Substance: SEQ ID NO: 22: AV-H/K with L10Q, L21Q and L29Q substitutions (ARLSRCVQVQSRKLTQKAKALKARIQQNQDQLRE; Mutated wild-type peptide)
- lipase stimulating activity relative to AV-H/K (lipoprotein lipase (LpL); [5]): reduced lipase stimulating activity

Substance: Dom1(E34K): AV199-232 with E34K substitution in domain 1 (ARLSRCVQVLSRKLTLKAKALHARIQQNLDQLRK)
- LpL stimulating activity of domain substitution peptides relative to AV199-232 (lipoprotein lipase (LpL)): did not influence AV199-232 activity

Substance: Dom1KO: AV199-232 with domain 1 substitutions R12Q/D30S (ARLSRCVQVLSQKLTLKAKALHARIQQNLSQLRE)
- LpL stimulating activity of domain substitution peptides relative to AV199-232 (lipoprotein lipase (LpL)): significant reduction

Substance: SEQ ID NO: 23: AV-H/K with L10F and L29F substitutions (ARLSRCVQVFSRKLTLKAKALKARIQQNFDQLRE; Mutated wild-type peptide)
- improvement in lipase stimulating activity relative to AV-H/K (lipoprotein lipase (LpL); [5]): about 2 fold
